# The source made the active and inactive calls.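 Rule for the calls: active = caspase luminescence falls with dose and the half-maximal concentration AC50 from the fitted curve is at or below a set limit; inconclusive = flat fit at 30 to 70% signal loss, or invalid fit; inactive = AC50 above the limit, or signal rises instead.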
# System: INS-1E cytokine-induced caspase-3/7, Caspase-Glo luminescence, 48 h
# Experiment: suppression of cytokine-driven beta-cell apoptosis – INS-1E rat cells, luminescence, orthogonal assay for beta-cell apoptosis protection project, dose response (AID 463206)
row,Compound,AC50
1,O=C1C=C(c2cccs2)C[C@H](c2ccccc2)[C@H]1n1nnc([N+](=O)[O-])n1,> 26 µM (inactive)
2,Cc1nn(-c2ccccc2)c(C)c1NC(=O)COc1ccc(Br)cc1Cl,> 26 µM (inactive)
3,c1ccc(CN2CCN(Cc3c[nH]c4ccccc34)CC2)cc1,> 26 µM (inactive)
4,CCn1c(=NC(=O)CCS(=O)(=O)c2ccccc2)sc2cccc(OC)c21,> 12 µM (inactive)
5,COc1ccc(C2/C=C\CN(C(=O)c3ccccc3)[C@H](Cc3ccccc3)C(=O)N2Cc2ccc(F)cc2)cc1 (stereo partly specified),> 26 µM (inactive)
6,CNC[C@H](CC1CCCCC1)NC[C@H](Cc1ccccc1)NCCC12CC3CC(CC(C3)C1)C2,> 26 µM (inactive)
7,CCCCC[n+]1cccc2c3ccccc3ccc21,> 26 µM (inactive)
8,Nc1ccc(N2CCCCC2)cc1N1CCCCC1,> 26 µM (inactive)
9,O=[N+]([O-])c1ccc(/C=N/n2c(CO)nc3ccccc32)s1,> 26 µM (inactive)
10,CCC1CCCCN1C(=O)c1cc(COc2ccc(-n3cncn3)cc2)on1 (stereo unspecified),> 26 µM (inactive)
11,COc1cc(C(=O)NC(=S)NNC(=O)c2cnccn2)cc(OC)c1OC,> 26 µM (inactive)
12,CN1/C(=C\C(=S)Nc2ccccc2)C(C)(C)c2ccccc21,> 26 µM (inactive)
13,CCS(=O)(=O)c1ncc(Cl)c(C(=O)Nc2ccccc2OC)n1,> 26 µM (inactive)
14,c1ccc(N2CCN(c3nc(-c4ccccn4)nc4ccccc34)CC2)cc1,> 26 µM (inactive)
15,CN1N=C(C(C)(C)C)CSC1=Nc1ccccc1,> 26 µM (inactive)
16,COc1cc2nc(N3CCN(c4cc(C)ccc4C)CC3)nc(N)c2cc1OC,> 26 µM (inactive)
17,C=CCSc1nsc(NC(=O)Nc2ccc(F)cc2)n1,> 26 µM (inactive)
18,Cc1noc(-c2ccc(C(F)(F)F)cc2)c1NC(=O)Nc1ccc(Cl)cc1,> 26 µM (inactive)
19,COc1ccc(C(=O)C/C(=C\C(=O)c2ccc(C)cc2)c2ccccc2)cc1,> 26 µM (inactive)
20,COc1ccc(-n2cc(-c3ccccc3)[n+]3c2CCCCC3)cc1,> 26 µM (inactive)
21,CC1CCC(C(C)C)C(OC(=O)Cn2c(-c3ccc(F)cc3)[n+](C)c3ccccc32)C1 (stereo unspecified),> 26 µM (inactive)
22,CCCOc1cc(NCc2ccccc2)c2ncn(C(C)C)c2c1,> 26 µM (inactive)

row,Compound,AC50
1,O=C1/C(=C/c2ccc(N3CCOCC3)o2)SC(=Nc2ccccc2)N1CCc1c[nH]c2ccccc12,> 26 µM (inactive)
2,Cc1ccc2[nH]cc(/C=C/c3cc[n+](C)cc3)c2c1,> 26 µM (inactive)
3,CCc1ccc(OCC(=O)NC(NC(=S)Nc2ccc(C)cc2C)C(Cl)(Cl)Cl)cc1 (stereo unspecified),> 26 µM (inactive)
4,O=c1nccc(N/N=C/c2ccccc2O)[nH]1,> 26 µM (inactive)
5,O=C1C=C(Nc2ccccc2)C(=O)c2ccccc21,> 26 µM (inactive)
6,C=C1C(=O)O[C@@H]2C[C@@H](C)[C@@H]3C=CC(=O)[C@@]3(C)[C@@H](OC(=O)CC(=O)O[C@H]3[C@@H]4C(=C)C(=O)O[C@@H]4C[C@@H](C)[C@@H]4C=CC(=O)[C@]43C)[C@H]12,> 26 µM (inactive)
7,Cc1cccc(OCc2n(CC(=O)OC3CC(C)CCC3C(C)C)c3ccccc3[n+]2C)c1 (stereo unspecified),> 26 µM (inactive)
8,CCCCCCSc1cccc(-c2nc3ccccn3c2NCc2ccccc2)c1,> 26 µM (inactive)
9,CCOC(=O)C1(Cc2cccc(Cl)c2)CCCN(C(=O)c2ccc(COC)s2)C1 (stereo unspecified),> 26 µM (inactive)
10,N=c1c2c(n(Cc3ccc(Cl)cc3Cl)c3c1CCC3)CCCC2,> 26 µM (inactive)
11,Oc1ccc(/C=N/Nc2ncc(Br)cn2)c(O)c1,> 26 µM (inactive)
12,Oc1ccc(CN2CCCc3ccccc32)c2cccnc12,> 26 µM (inactive)
13,CC(=O)c1cccc(N=c2scc(-c3ccc(S(=O)(=O)N4CCOCC4)cc3)n2CCO)c1,> 26 µM (inactive)
14,Cc1cc(C)c(S(=O)(=O)/N=C2/C=C(Sc3ncn[nH]3)C(=O)c3ccccc32)cc1C,> 26 µM (inactive)
15,Cc1nc(Nc2ccc(Cl)c(Cl)c2)sc1C(=O)Nc1ccccc1,> 26 µM (inactive)
16,O=C(Nc1cccc(Cl)c1)Nc1nnc(-c2ccncc2)s1,> 26 µM (inactive)
17,O=C1C=C(c2ccc(F)cc2OCc2ccccc2)C[C@@H](c2ccc(Cl)cc2)C1,> 26 µM (inactive)
18,Cn1nc(C(C)(C)C)cc1C(=O)NCc1ccc2c(c1)OCO2,> 26 µM (inactive)
19,C=CCCc1ccc(C#N)c(SCc2c(C(=O)OCC)c3cc(OC(C)=O)c(Br)cc3n2C)n1,> 26 µM (inactive)
20,O=C(NCc1cccnc1)/C(=C/c1ccc(-c2ccc(Cl)cc2)o1)S(=O)(=O)c1ccccc1,> 26 µM (inactive)
21,CC1Cc2cc(S(=O)(=O)N3CCC(C(=O)N4CCN(c5ccccc5F)CC4)CC3)ccc2N1C(=O)C1CC1 (stereo unspecified),> 26 µM (inactive)
22,CCOC(=O)C1=C(c2ccc(OC)cc2)C(=O)c2ccccc2C1=O,> 26 µM (inactive)

row,Compound,AC50
1,On1onc2c3cc(-c4ccccc4)nc3ccc21,> 26 µM (inactive)
2,CCC(C)Sc1cccc(-c2nc3ccc(C)cn3c2NCc2ccccc2)c1 (stereo unspecified),> 26 µM (inactive)
3,Cc1cc2cc(CN3C(=O)c4ccccc4C3=O)ccc2n1C,> 26 µM (inactive)
4,O=C(Nc1ccc(S(=O)(=O)N2CCOCC2)cc1)c1ccc([N+](=O)[O-])s1,> 26 µM (inactive)
5,COc1cccc(/C=N/NC(=O)c2ccoc2C)c1O,> 26 µM (inactive)
6,NC(=O)c1c(-c2ccc(Cl)cc2Cl)csc1NC(=O)Cc1ccccc1,> 26 µM (inactive)
7,CCOc1cccc(/C=N/NC(=O)c2cc(C3CC3)[nH]n2)c1O,> 26 µM (inactive)
8,O=C(N=Nc1c(O)n(Cc2ccccc2)c2ccccc12)c1cc2ccccc2cc1O,> 26 µM (inactive)
9,O=C(N/N=C/c1cc([N+](=O)[O-])ccc1O)c1cccc2cc[nH]c12,> 26 µM (inactive)
10,O=C1C(Nc2ccccc2)=C/C(=N/S(=O)(=O)c2cccs2)c2ccccc21,> 26 µM (inactive)
11,O=C(c1cc(-c2cccc(O)c2)on1)N1CCN(C(c2ccccc2)c2ccccc2)CC1,> 26 µM (inactive)
12,CCC(=NNC(=O)c1ccc2c(c1)nc(C)n2CC)c1cc(F)ccc1O,> 26 µM (inactive)
13,CN(C1=C(NC(=O)c2ccc(Cl)cc2)C(=O)c2ccccc2C1=O)c1ccccc1,> 26 µM (inactive)
14,CC(C)[C@H]1C(=O)O[C@H](C(C)C)C(=O)N(C)[C@@H](C(C)C)C(=O)O[C@H](C(C)C)C(=O)N(C)[C@@H](C(C)C)C(=O)O[C@H](C(C)C)C(=O)N1C,> 26 µM (inactive)
15,CCN(CC(=O)Nc1ccc(NC(C)=O)cc1)C(=O)CCCOc1ccc(C(C)(C)C)cc1,> 26 µM (inactive)
16,Brc1ccc(-[n+]2c(-c3ccccc3)cc(-c3ccccc3)cc2-c2ccccc2)cc1,> 26 µM (inactive)
17,Cc1nc2c(=O)n(C)c(=O)nc-2n(C)n1,> 26 µM (inactive)
18,O=C(NCC(c1ccco1)N1CCCC1)c1ccc(Cl)c(S(=O)(=O)N2CCc3ccccc32)c1 (stereo unspecified),> 26 µM (inactive)
19,C/C(=N\NC(=O)c1cc2ccccc2cc1O)c1ccccn1,> 26 µM (inactive)
20,Oc1ccc(CN2CCc3ccccc3C2)c2cccnc12,> 26 µM (inactive)
21,COC(=O)c1ccc2[nH]c3cccc(/C(=C/c4ccccc4)c4ccccc4)c3c2c1,> 26 µM (inactive)
22,COc1ccc(CN(C)c2ccc(S(=O)(=O)N3CCN(C)CC3)cc2[N+](=O)[O-])cc1OC,> 26 µM (inactive)

# — PubChem BioAssay AID463206 (Broad Institute, 2010)
